The values below come from paper PMC11673932, “A Novel Ginsenoside-Transforming α-L-Rhamnosidase from Bifidobacterium: Screening, Characterization and Application” (Biomolecules, 2024).

As a reminder, the Km is the substrate concentration at which the rate is half of its maximum.

Assay [1] deals with T1, BD890 (Bd890, BdRham) (Bifidobacterium dentium, UniProt D2Q797).
T1 construct: gene BDP_0161; GST-tag vector pBT7 (same expression system as C118), E. coli BL21(DE3), used as cell lysate; GH78
T1 sequence (D2Q797 1-890): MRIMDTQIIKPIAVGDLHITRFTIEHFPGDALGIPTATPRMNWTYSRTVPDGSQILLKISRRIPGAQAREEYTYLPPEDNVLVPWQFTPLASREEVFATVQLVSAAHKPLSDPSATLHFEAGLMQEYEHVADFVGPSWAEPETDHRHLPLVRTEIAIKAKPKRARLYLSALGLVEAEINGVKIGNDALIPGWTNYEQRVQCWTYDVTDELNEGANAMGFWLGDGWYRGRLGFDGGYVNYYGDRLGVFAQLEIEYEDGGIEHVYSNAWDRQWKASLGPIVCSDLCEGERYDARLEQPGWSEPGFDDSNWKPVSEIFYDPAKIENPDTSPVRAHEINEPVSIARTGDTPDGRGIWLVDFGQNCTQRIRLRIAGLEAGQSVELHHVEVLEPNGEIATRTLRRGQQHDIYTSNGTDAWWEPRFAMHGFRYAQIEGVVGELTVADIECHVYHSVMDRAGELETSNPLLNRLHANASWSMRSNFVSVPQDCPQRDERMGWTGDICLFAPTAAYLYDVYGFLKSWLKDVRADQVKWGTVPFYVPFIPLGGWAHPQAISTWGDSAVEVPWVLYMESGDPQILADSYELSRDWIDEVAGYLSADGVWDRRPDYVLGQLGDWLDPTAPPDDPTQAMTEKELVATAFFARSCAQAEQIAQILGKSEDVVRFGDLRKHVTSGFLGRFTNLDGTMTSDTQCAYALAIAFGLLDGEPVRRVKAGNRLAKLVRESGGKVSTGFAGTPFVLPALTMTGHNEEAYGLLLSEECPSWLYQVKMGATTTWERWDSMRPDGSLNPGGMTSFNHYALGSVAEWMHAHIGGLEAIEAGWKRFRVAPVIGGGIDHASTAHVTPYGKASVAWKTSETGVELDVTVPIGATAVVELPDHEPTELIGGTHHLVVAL
In words: conversion of Re to Rg1 in PPT-type ginsenoside mixture. The settings on record: cell lysate, 45 °C, Re 2.25 mg/mL in ginsenoside mixture. Format: biochemical.

Assay [2] deals with T2, C118 (GST-C118), alpha-L-rhamnosidase.
T2 construct: E. coli BL21(DE3); GH78 subfamily II; EC 3.2.1.40; predicted catalytic residues Glu478, Asp472, also W541, W600, L597, W532
In words: product (Rg1) quantified, Michaelis-Menten fit. Format: biochemical, Bifidobacterium sp. Conditions: pH 6.0, 45 °C; Re 0.25-10.0 mg/mL; enzyme 0.62 mg/mL. An excerpt: product (Rg1) quantified, Michaelis-Menten fit on C118 (GST-C118), alpha-L-rhamnosidase

For assay [3] the test system is unchanged. In words: p-nitrophenol release, Michaelis-Menten fit. Type of assay: biochemical, Bifidobacterium sp. Conditions: pH 6.0, 45 °C; pNPR 0.1-5.0 mM; enzyme 0.62 mg/mL. The text has this: p-nitrophenol release, Michaelis-Menten fit on C118 (GST-C118), alpha-L-rhamnosidase

Molecules are shown by their SMILES.

On to `CC(C)=CCC[C@](C)(O[C@@H]1O[C@H](CO)[C@@H](O)[C@H](O)[C@H]1O)[C@H]1CC[C@]2(C)[C@@H]1[C@H](O)C[C@@H]1[C@@]3(C)CC[C@H](O)C(C)(C)[C@@H]3[C@@H](O[C@@H]3O[C@H](CO)[C@@H](O)[C@H](O)[C@H]3O[C@@H]3O[C@@H](C)[C@H](O)[C@@H](O)[C@H]3O)C[C@]12C` [Ginsenoside Re], for which, in assay [1], the “% conversion after 12 h” value is 54%. For the same compound, in assay [2], the Km was 544 µM. `C[C@@H]1O[C@@H](Oc2ccc([N+](=O)[O-])cc2)[C@H](O)[C@H](O)[C@H]1O` [p-nitrophenyl-α-L-rhamnopyranoside]: the Km in assay [3] was 2.03 mM.
